{
  "source": "patent US20240238296A1",
  "about": "“METHODS OF REGULATING BCL11A EXPRESSION AND TREATMENT OF BCL11A-MEDIATED DISORDERS” (Fulcrum Therapeutics, Inc., priority 2021, published 2024)",
  "key": {"[1]": {"tested_on": "HBG2", "assay": "RNA-Seq of HBG2 expression in erythroid-differentiated primary CD34+ cells", "assay_type": "cell-based, human", "description": "(§1) Changes in BCL11A expression and HBG1 and HBG2 expression in multiple healthy CD34+ donor cells were measured by RNA sequencing (RNA-Seq). Human Mobilized Peripheral Blood Primary CD34+ cells from 2 healthy donors and 1 sickle cell trait donor were expanded from thaw by seeding 100,000 viable cells/mL in a culture flask containing CD34+ Phase 1 Media comprised of IMDM, 100 ng/ml hSCF, 5 ng/ml IL-3, 3 IU/mL EPO, 250 μg/mL transferrin, 2.5% normal human serum, 1% pen/strep, 10 ng/ml heparin, 10 μg/mL insulin. The cells were supplemented by adding an additional 1X culture volume of CD34+ Phase 1 Media on Day 3 after thaw. At Day 7 post-thaw, cells were seeded at 0.111×10^6 cells/ml in 1.5 mLs of Phase 1 media in 12-well plates and compound was applied. On Day 10 post-thaw, cells were differentiated towards the erythroid lineage by complete medium exchange into CD34+ Phase 2 Media comprised of IMDM, 100 ng/ml hSCF, 3 IU/mL EPO, 250 μg/mL transferrin, 2.5% normal human serum, 1% pen/strep, 10 ng/ml heparin, 10 μg/mL insulin and compound treatment was reapplied. […]\n(§2) RNA was extracted from Day 14 post-thaw primary CD34+ cells that were differentiated and treated for 7 days with DMSO, 100 nM of Compound 1, or 100 nM of Compound 2 using Ambion mirVana RNA extraction kits. […] Sequenced raw reads of fastq files from all samples were mapped to hg38 genome assemblies using ArrayStudio aligner. Raw read counts and FPKM were calculated for all genes and DESeq2 was applied to calculate differentially expressed genes using general linear model. […]\nas §2, with “DMSO, 11 nM, 33 nM,” for “DMSO,”, “100 nM, or 300” for “100”, “1” for “1, or 100 nM of Compound 2”"}, "[2]": {"tested_on": "TFRC", "assay": "RNA-Seq of housekeeping gene TFRC expression in primary CD34+ cells", "assay_type": "cell-based, human", "conditions": "Example 2; 100 nM, 7 days", "description": "as §1, with “applied.” for “applied. On Day 10 post-thaw, cells were differentiated towards the erythroid lineage by complete medium exchange into CD34+ Phase 2 Media comprised of IMDM, 100 ng/ml hSCF, 3 IU/mL EPO, 250 μg/mL transferrin, 2.5% normal human serum, 1% pen/strep, 10 ng/ml heparin, 10 μg/mL insulin and compound treatment was reapplied.”\nas §2"}, "[3]": {"tested_on": "HbF", "assay": "Percentage HbF by cation-exchange HPLC in erythroid-differentiated primary CD34+ cells", "assay_type": "cell-based, human", "conditions": "Example 2; 100 nM, 7 days", "description": "as §1, with “applied.” for “applied. On Day 10 post-thaw, cells were differentiated towards the erythroid lineage by complete medium exchange into CD34+ Phase 2 Media comprised of IMDM, 100 ng/ml hSCF, 3 IU/mL EPO, 250 μg/mL transferrin, 2.5% normal human serum, 1% pen/strep, 10 ng/ml heparin, 10 μg/mL insulin and compound treatment was reapplied.”\nHemoglobin protein tetramers were analyzed using HPLC analysis following a protocol derived from Gravett et al. Science 2018. […] Hemolysates were cleared by centrifugation and analyzed for identity and levels of hemoglobin variants (HbF and HbA) by cation-exchange HPLC with a weak cation-exchange column (Poly CAT A: 35 mm×4.6 mm, Poly LC, Inc., Columbia, MD). […] Species were monitored with UV absorbance at 410 nm. […] The abundance of HbF, HbS, and HbA was quantified by calculating the area under the curve for each species in the samples. % HbF was calculated as HbF/(HbF+HbS+HbA)*100. […]"}, "[4]": {"tested_on": "BCL11A", "assay": "RNA-Seq of BCL11A mRNA expression in erythroid-differentiated primary CD34+ cells", "assay_type": "cell-based, human", "description": "Human Mobilized Peripheral Blood Primary CD34+ cells from healthy donors were expanded from thaw by seeding 100,000 viable cells/mL in a culture flask containing CD34+ Phase 1 Media comprised of IMDM, 100 ng/ml hSCF, 5 ng/ml IL-3, 3 IU/mL EPO, 250 μg/mL transferrin, 2.5% normal human serum, 1% pen/strep, 10 ng/ml heparin, 10 μg/mL insulin. The cells were supplemented by adding an additional 1X culture volume of CD34+ Phase 1 Media on Day 3 after thaw. At Day 7 post-thaw, cells were seeded at 0.111×10^6 cells/ml in 1.5 mLs of Phase 1 media in 12-well plates and compound was applied. On Day 10 post-thaw, cells were differentiated towards the erythroid lineage by complete medium exchange into CD34+ Phase 2 Media comprised of IMDM, 100 ng/ml hSCF, 3 IU/mL EPO, 250 μg/mL transferrin, 2.5% normal human serum, 1% pen/strep, 10 ng/mL heparin, 10 μg/mL insulin and compound treatment was reapplied. On Day 12 post-thaw the plates were centrifuged, and 1 mL of Phase 2 media exchanged with fresh Phase 2 media and compound. The cells were harvested on Day 14 post-thaw for downstream analyses.\nas §2, with “DMSO, 11 nM, 33 nM,” for “DMSO,”, “100 nM, or 300” for “100”, “1” for “1, or 100 nM of Compound 2”\nChanges in BCL11A expression and HBG1 and HBG2 expression in multiple healthy CD34+ donor cells were measured by RNA sequencing (RNA-Seq). […]\nas §2, with “aligner.” for “aligner. Raw read counts and FPKM were calculated for all genes and DESeq2 was applied to calculate differentially expressed genes using general linear model.”"}, "[5]": {"tested_on": "HBG1", "assay": "RNA-Seq of HBG1 expression in erythroid-differentiated primary CD34+ cells", "assay_type": "cell-based, human", "description": "as §1, §2\nas §2, with “DMSO, 11 nM, 33 nM,” for “DMSO,”, “100 nM, or 300” for “100”, “1” for “1, or 100 nM of Compound 2”"}, "[6]": {"tested_on": "HbF", "assay": "% HbF of total hemoglobin by HPLC from whole blood in Townes SCD mouse model", "assay_type": "in vivo", "conditions": "Townes SCD mice; whole blood after 21 days of treatment; FIG. 8C", "text": "(§3) The Townes SCD mouse model was used to study the in vivo pharmacologic activity of Compound 1 in a model with the relevant human globin genes (HBG1 and HBBE6V) integrated into the mouse beta globin locus. Hydroxyurea was used as a benchmark for this 21-day study. […] People living with sickle cell present with impaired erythropoiesis leading to elevated reticulocytes, decreased red blood cell count, and total hemoglobin, and additionally display markers of inflammation such as elevated neutrophils and white blood cells. Similarly, the Townes mouse model recapitulates these hematological aspects of SCD."}, "[7]": {"tested_on": "H3K27me3", "assay": "Target engagement: H3K27me3 flow cytometry in Ter119+ bone marrow cells of Townes SCD mice", "assay_type": "in vivo, mouse", "conditions": "after 28 days of treatment, FIG. 8A", "text": "as §3, with “Hydroxyurea was used as a benchmark for this 21-day study.” left out"}, "[8]": {"conditions": "Example 2, 100 nM, 7 days, all donors studied (D069, D144, D326), FIG. 2"}, "[9]": {"conditions": "Example 5, 4-point concentration response curves, FIG. 5C"}, "[10]": {"conditions": "Example 5, 4-point concentration response curves, FIG. 5A"}, "[11]": {"conditions": "Example 5, 4-point concentration response curves, FIG. 5B"}},
  "data": [
    {"smiles": "Cn1nccc1-c1cc2c(n3cnnc13)NCc1c(F)ccc3c1[C@H](CO3)CO2", "note": "[Compound 2]", "values": [
      {"measurement": "HBG2 expression", "setting": "[1]; [8]", "result": "increase"},
      {"measurement": "HBG2 expression", "setting": "[1]; [9]", "result": "induction"},
      {"measurement": "expression of the housekeeping gene TFRC", "setting": "[2]", "result": "did not result in substantial changes in expression"},
      {"measurement": "increase in percentage HbF by HPLC", "setting": "[3]", "result": "approximately 2 fold"},
      {"measurement": "BCL11A expression", "setting": "[4]; [8]", "result": "decreased"},
      {"measurement": "BCL11A expression", "setting": "[4]; [10]", "result": "reduction"},
      {"measurement": "HBG1 expression", "setting": "[5]; [8]", "result": "increase"},
      {"measurement": "HBG1 expression", "setting": "[5]; [11]", "result": "induction"}
    ]},
    {"smiles": "COc1cc(C)[nH]c(=O)c1CN1CCc2c(Cl)cc([C@@H](OC)C3COC3)c(Cl)c2C1=O", "note": "[Compound 3]", "values": [
      {"measurement": "HBG2 expression", "setting": "[1]; [9]", "result": "induction"},
      {"measurement": "BCL11A expression", "setting": "[4]; [10]", "result": "reduction"},
      {"measurement": "HBG1 expression", "setting": "[5]; [11]", "result": "induction"}
    ]},
    {"smiles": "NC(=O)NO", "note": "[hydroxyurea]", "values": [
      {"measurement": "% HbF of total hemoglobin by HPLC", "setting": "[6]", "result": "no change"},
      {"measurement": "levels of H3K27me3 in Ter119+ bone marrow cells", "setting": "[7]", "result": "not"}
    ]}
  ]
}
